Activity calls are given as the source filed them. No cut-off for these calls is given here. Numbered stars: 1 amine (or outer) side, 2 acyl side, 3 side chain; on linkers, the order of the positions; unused ones are H or OH. Square brackets hold non-standard residues; d marks the D form. Peptide text beside a SMILES is read from it. * marks the point of attachment. Phe(4-CH2SO3H) = N[C@@H](Cc1ccc(CS(=O)(=O)O)cc1)C(=O)O; Phenylacetyl(4-OSO3H) = O=C(Cc1ccc(OS(=O)(=O)O)cc1)*; C20 diacid = O=C(O)CCCCCCCCCCCCCCCCCCC(=O)*; sY = N[C@@H](Cc1ccc(OS(=O)(=O)O)cc1)C(=O)O; C18 diacid = O=C(O)CCCCCCCCCCCCCCCCC(=O)*; NMe1Nal = CN[C@@H](Cc1cccc2ccccc12)C(=O)O; γGlu = O=C(O)[C@H](CCC(=O)[*:2])N[*:1]; 1Nal = N[C@@H](Cc1cccc2ccccc12)C(=O)O; C14 diacid = O=C(O)CCCCCCCCCCCCC(=O)*; Hyp = O=C(O)[C@@H]1C[C@@H](O)CN1; NMeF = CN[C@@H](Cc1ccccc1)C(=O)O; NMeD = CN[C@@H](CC(=O)O)C(=O)O; dNMeD = CN[C@H](CC(=O)O)C(=O)O; Nle = CCCC[C@H](N)C(=O)O; AEEA = NCCOCCOCC(=O)O
Experiments:
[1] = molecular target: T1, Cholecystokinin receptor type A (Homo sapiens, UniProt P32238); experiment: (§1) Displacement of [125I]-CCK-8 from human CCK1R expressed in human 1321N1 cell membranes after 2 hrs by SPA assay
T1 sequence (P32238 whole entry): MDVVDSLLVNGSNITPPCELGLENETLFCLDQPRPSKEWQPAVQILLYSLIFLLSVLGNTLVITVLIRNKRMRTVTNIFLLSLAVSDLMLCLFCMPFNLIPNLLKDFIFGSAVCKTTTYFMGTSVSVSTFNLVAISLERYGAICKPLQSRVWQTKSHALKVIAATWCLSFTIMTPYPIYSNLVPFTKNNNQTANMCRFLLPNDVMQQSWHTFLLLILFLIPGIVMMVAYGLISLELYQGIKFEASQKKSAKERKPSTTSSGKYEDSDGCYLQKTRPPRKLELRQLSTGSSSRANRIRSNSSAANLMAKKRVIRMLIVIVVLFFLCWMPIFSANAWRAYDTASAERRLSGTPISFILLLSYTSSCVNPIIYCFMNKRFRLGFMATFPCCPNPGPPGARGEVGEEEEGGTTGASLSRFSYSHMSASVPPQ

[2] = Terminal half life in Ellegaard Gottingen minipig at 5 nmol/kg, iv by LC-MS/MS analysis; type: ADME, organism-based, Sus scrofa; settings: pig, in vivo, read-out: beta t1/2 (converted)
[3] = molecular target: T2, Cholecystokinin receptor type A (Homo sapiens) (UniProt P32238); experiment: (§2) Agonist activity at human CCK1R expressed in human 1321N1 cells assessed as IP1 accumulation after 1 hr by HTRF assay; type: functional, cell-based
T2 sequence (whole entry): T1 sequence (P32238 whole entry)

[4] = molecular target: T3, Gastrin/cholecystokinin type B receptor (Homo sapiens) (UniProt P32239); experiment: (§3) Agonist activity at human CCK2R expressed in human 1321N1 cells assessed as IP1 accumulation after 1 hr by HTRF assay; type: functional, cell-based
T3 sequence (whole entry): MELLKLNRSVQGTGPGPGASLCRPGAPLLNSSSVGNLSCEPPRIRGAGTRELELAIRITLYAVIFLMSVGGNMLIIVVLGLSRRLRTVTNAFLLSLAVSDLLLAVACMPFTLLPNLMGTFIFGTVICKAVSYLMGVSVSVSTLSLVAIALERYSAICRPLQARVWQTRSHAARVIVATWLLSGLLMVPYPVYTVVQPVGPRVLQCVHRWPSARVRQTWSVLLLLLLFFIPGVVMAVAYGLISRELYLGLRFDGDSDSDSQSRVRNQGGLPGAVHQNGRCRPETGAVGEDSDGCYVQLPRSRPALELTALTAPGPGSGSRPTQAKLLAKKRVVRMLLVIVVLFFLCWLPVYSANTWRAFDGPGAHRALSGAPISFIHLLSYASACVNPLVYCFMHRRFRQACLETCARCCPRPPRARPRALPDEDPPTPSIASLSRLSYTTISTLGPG

[5] = molecular target: T2, Cholecystokinin receptor type A (Homo sapiens); experiment: as §1
[6] = molecular target: T3, Gastrin/cholecystokinin type B receptor (Homo sapiens); experiment: (§4) Displacement of [125I]-CCK-8 from human CCK2R expressed in human 1321N1 cell membranes after 2 hrs by SPA assay
[7] = molecular target: T1, Cholecystokinin receptor type A; experiment: as §2; type: functional, cell-based
[8] = molecular target: T4, Gastrin/cholecystokinin type B receptor (Homo sapiens, UniProt P32239); experiment: as §3; type: functional, cell-based
T4 sequence (P32239 whole entry): T3 sequence (whole entry)

[9] = molecular target: T4, Gastrin/cholecystokinin type B receptor; experiment: as §4

IC50 [1] [nM]	half-life [2] [days]	pEC50 [3]	pEC50 [4]	pIC50 [5]	pIC50 [6]	EC50 [7] [nM]	EC50 [8] [nM]	IC50 [9] [nM]	Compound
0.107	0.108	–	–	–	–	–	–	–	CCCC[C@H](NC(=O)[C@H](Cc1c[nH]c2ccccc12)NC(=O)CNC(=O)[C@H](CC(C)C)NC(=O)[C@H](Cc1ccc(OS(=O)(=O)O)cc1)NC(=O)[C@H](CC(=O)O)NC(=O)CCCCCCCCCCCCCCCCC(=O)O)C(=O)N(C)[C@H](CC(=O)O)C(=O)N(C)[C@@H](Cc1ccccc1)C(N)=O
–	–	inactive	inactive	inactive	inactive	–	–	–	CCCC[C@H](NC(=O)[C@H](Cc1ccc(CS(=O)(=O)O)cc1)NC(=O)[C@H](CC(=O)O)NC(=O)COCCOCCNC(=O)COCCOCCNC(=O)CC[C@H](NC(=O)CCCCCCCCCCCCCCCCC(=O)O)C(=O)O)C(=O)NCC(=O)N[C@@H](Cc1c[nH]c2ccccc12)C(=O)N[C@@H](CCCC)C(=O)N(C)[C@H](CC(=O)O)C(=O)N(C)[C@@H](Cc1ccccc1)C(=O)O
–	–	Active	Active	Active	Active	–	–	–	CCCC[C@H](NC(=O)[C@H](Cc1ccc(OS(=O)(=O)O)cc1)NC(=O)[C@H](CC(=O)O)NC(=O)COCCOCCNC(=O)COCCOCCNC(=O)CC[C@H](NC(=O)CCCCCCCCCCCCCCCCC(=O)O)C(=O)O)C(=O)NCC(=O)N[C@@H](Cc1c[nH]c2ccccc12)C(=O)N[C@@H](CC(C)C)C(=O)N[C@@H](CC(=O)O)C(=O)N[C@@H](Cc1ccccc1)C(N)=O
0.155	0.0833	–	–	–	–	0.182	–	–	CCCC[C@H](NC(=O)[C@H](Cc1c[nH]c2ccccc12)NC(=O)CNC(=O)[C@H](CC(C)C)NC(=O)[C@H](Cc1ccc(CS(=O)(=O)O)cc1)NC(=O)[C@H](CC(=O)O)NC(=O)COCCOCCNC(=O)COCCOCCNC(=O)CC[C@H](NC(=O)CCCCCCCCCCCCC(=O)O)C(=O)O)C(=O)N(C)[C@H](CC(=O)O)C(=O)N(C)[C@@H](Cc1ccccc1)C(N)=O ({C14 diacid-γGlu-AEEA-AEEA}-D[Phe(4-CH2SO3H)]LGW[Nle][dNMeD][NMeF]-NH2)
–	6.12	–	–	–	–	0.407	151	2040	CCCC[C@H](NC(=O)[C@H](Cc1c[nH]c2ccccc12)NC(=O)CNC(=O)[C@H](CC(C)C)NC(=O)[C@H](Cc1ccc(OS(=O)(=O)O)cc1)NC(=O)[C@H](CC(=O)O)NC(=O)COCCOCCNC(=O)COCCOCCNC(=O)CC[C@H](NC(=O)CCCCCCCCCCCCCCCCC(=O)O)C(=O)O)C(=O)N(C)[C@H](CC(=O)O)C(=O)N(C)[C@@H](Cc1cccc2ccccc12)C(N)=O ({C18 diacid-γGlu-AEEA-AEEA}-D[sY]LGW[Nle][dNMeD][NMe1Nal]-NH2)
–	–	inactive	inactive	inactive	inactive	–	–	–	CCCC[C@H](NC(=O)[C@H](Cc1ccc(OS(=O)(=O)O)cc1)NC(=O)[C@H](CC(=O)O)NC(=O)COCCOCCNC(=O)COCCOCCNC(=O)CC[C@H](NC(=O)CCCCCCCCCCCCCCCCC(=O)O)C(=O)O)C(=O)NCC(=O)N[C@@H](Cc1c[nH]c2ccccc12)C(=O)N[C@@H](C)C(=O)N[C@@H](CC(=O)O)C(=O)N[C@@H](Cc1ccccc1)C(N)=O ({C18 diacid-γGlu-AEEA-AEEA}-D[sY][Nle]GWADF-NH2)
–	–	inactive	inactive	inactive	inactive	–	–	–	CCCC[C@H](NC(=O)[C@H](Cc1ccc(OS(=O)(=O)O)cc1)NC(=O)[C@H](CC(=O)O)NC(=O)COCCOCCNC(=O)COCCOCCNC(=O)CC[C@H](NC(=O)CCCCCCCCCCCCCCCCC(=O)O)C(=O)O)C(=O)NCC(=O)N[C@@H](Cc1c[nH]c2ccccc12)C(=O)N[C@@H](CCC(=O)O)C(=O)N[C@@H](CC(=O)O)C(=O)N[C@@H](Cc1ccccc1)C(N)=O ({C18 diacid-γGlu-AEEA-AEEA}-D[sY][Nle]GWEDF-NH2)
19.1	–	–	–	–	–	11.7	5.75	309	CCCC[C@H](NC(=O)[C@H](Cc1ccc(OS(=O)(=O)O)cc1)NC(=O)[C@H](CC(=O)O)NC(=O)COCCOCCNC(=O)COCCOCCNC(=O)CC[C@H](NC(=O)CCCCCCCCCCCCCCCCC(=O)O)C(=O)O)C(=O)NCC(=O)N[C@@H](Cc1c[nH]c2ccccc12)C(=O)N[C@@H](CCCC)C(=O)N[C@@H](CC(N)=O)C(=O)N[C@@H](Cc1ccccc1)C(N)=O ({C18 diacid-γGlu-AEEA-AEEA}-D[sY][Nle]GW[Nle]NF-NH2)
3.02	–	–	–	–	–	1.12	25.7	457	CCCC[C@H](NC(=O)[C@H](Cc1ccc(OS(=O)(=O)O)cc1)NC(=O)[C@H](CC(=O)O)NC(=O)COCCOCCNC(=O)COCCOCCNC(=O)CC[C@H](NC(=O)CCCCCCCCCCCCCCCCC(=O)O)C(=O)O)C(=O)NCC(=O)N[C@@H](Cc1c[nH]c2ccccc12)C(=O)N[C@@H](CCCC)C(=O)N1C[C@H](O)C[C@H]1C(=O)N[C@@H](Cc1ccccc1)C(N)=O ({C18 diacid-γGlu-AEEA-AEEA}-D[sY][Nle]GW[Nle][Hyp]F-NH2)
0.0794	–	–	–	–	–	0.501	1.86	115	CCCC[C@H](NC(=O)[C@H](Cc1ccc(OS(=O)(=O)O)cc1)NC(=O)[C@H](CC(=O)O)NC(=O)COCCOCCNC(=O)COCCOCCNC(=O)CC[C@H](NC(=O)CCCCCCCCCCCCCCCCC(=O)O)C(=O)O)C(=O)NCC(=O)N[C@@H](Cc1c[nH]c2ccccc12)C(=O)N[C@@H](CCCC)C(=O)N(C)[C@@H](CC(=O)O)C(=O)N[C@@H](Cc1cccc2ccccc12)C(N)=O ({C18 diacid-γGlu-AEEA-AEEA}-D[sY][Nle]GW[Nle][NMeD][1Nal]-NH2)
0.0741	5.83	–	–	–	–	0.363	89.1	–	CCCC[C@H](NC(=O)[C@H](Cc1ccc(OS(=O)(=O)O)cc1)NC(=O)[C@H](CC(=O)O)NC(=O)COCCOCCNC(=O)COCCOCCNC(=O)CC[C@H](NC(=O)CCCCCCCCCCCCCCCCC(=O)O)C(=O)O)C(=O)NCC(=O)N[C@@H](Cc1c[nH]c2ccccc12)C(=O)N[C@@H](CCCC)C(=O)N(C)[C@H](CC(=O)O)C(=O)N[C@@H](Cc1cccc2ccccc12)C(N)=O ({C18 diacid-γGlu-AEEA-AEEA}-D[sY][Nle]GW[Nle][dNMeD][1Nal]-NH2)
2570	–	–	–	–	–	912	0.832	13.5	CCCC[C@H](NC(=O)[C@H](Cc1c[nH]c2ccccc12)NC(=O)[C@H](CCCCN)NC(=O)[C@H](CCCC)NC(=O)[C@H](Cc1ccc(OS(=O)(=O)O)cc1)NC(=O)[C@H](CC(=O)O)NC(=O)COCCOCCNC(=O)COCCOCCNC(=O)CC[C@H](NC(=O)CCCCCCCCCCCCCCCCC(=O)O)C(=O)O)C(=O)N[C@@H](CC(=O)O)C(=O)N[C@@H](Cc1ccccc1)C(N)=O ({C18 diacid-γGlu-AEEA-AEEA}-D[sY][Nle]KW[Nle]DF-NH2)
933	–	–	–	–	–	603	0.38	0.589	CCCC[C@H](NC(=O)[C@H](Cc1c[nH]c2ccccc12)NC(=O)[C@@H]1CCCN1C(=O)[C@H](CCCC)NC(=O)[C@H](Cc1ccc(OS(=O)(=O)O)cc1)NC(=O)[C@H](CC(=O)O)NC(=O)COCCOCCNC(=O)COCCOCCNC(=O)CC[C@H](NC(=O)CCCCCCCCCCCCCCCCC(=O)O)C(=O)O)C(=O)N[C@@H](CC(=O)O)C(=O)N[C@@H](Cc1ccccc1)C(N)=O ({C18 diacid-γGlu-AEEA-AEEA}-D[sY][Nle]PW[Nle]DF-NH2)
0.0407	6.38	–	–	–	–	0.372	–	–	CCCC[C@H](NC(=O)[C@H](Cc1c[nH]c2ccccc12)NC(=O)CNC(=O)[C@H](CC(C)C)NC(=O)[C@H](Cc1ccc(CS(=O)(=O)O)cc1)NC(=O)[C@H](CC(=O)O)NC(=O)COCCOCCNC(=O)COCCOCCNC(=O)CC[C@H](NC(=O)CCCCCCCCCCCCCCCCCCC(=O)O)C(=O)O)C(=O)N(C)[C@H](CC(=O)O)C(=O)N(C)[C@@H](Cc1ccccc1)C(N)=O ({C20 diacid-γGlu-AEEA-AEEA}-D[Phe(4-CH2SO3H)]LGW[Nle][dNMeD][NMeF]-NH2)
0.0447	–	–	–	–	–	0.0251	> 1000	7410	CCCC[C@H](NC(=O)Cc1ccc(OS(=O)(=O)O)cc1)C(=O)NCC(=O)N[C@@H](Cc1c[nH]c2ccccc12)C(=O)N[C@@H](CCCC)C(=O)N(C)[C@H](CC(=O)O)C(=O)N[C@@H](Cc1ccccc1)C(N)=O ({Phenylacetyl(4-OSO3H)}-[Nle]GW[Nle][dNMeD]F-NH2)
